Results from ChEMBL document CHEMBL2074155, “Transport of antimony salts by Arabidopsis thaliana protoplasts over-expressing the human multidrug resistance-associated protein 1 (MRP1/ABCC1)” (FEBS Lett, 2006).

How the values were obtained:
[1] = molecular target: T1, Multidrug resistance-associated protein 1 (Homo sapiens, UniProt P33527); assay: TP_TRANSPORTER: cell accumulation in MRP1-expressing MCP cells; type: functional, Mesophyll cell protoplasts; conditions: arabidopsis thaliana
[2] = molecular target: T1, Multidrug resistance-associated protein 1; assay: TP_TRANSPORTER: inhibition of Sb(III) accumulation in the presence of glibenclamid at a concentration of 10uM in MRP1-expressing MCP cells; type: functional, subcellular, Protoplasts; conditions: arabidopsis thaliana

T1 sequence (P33527 whole entry): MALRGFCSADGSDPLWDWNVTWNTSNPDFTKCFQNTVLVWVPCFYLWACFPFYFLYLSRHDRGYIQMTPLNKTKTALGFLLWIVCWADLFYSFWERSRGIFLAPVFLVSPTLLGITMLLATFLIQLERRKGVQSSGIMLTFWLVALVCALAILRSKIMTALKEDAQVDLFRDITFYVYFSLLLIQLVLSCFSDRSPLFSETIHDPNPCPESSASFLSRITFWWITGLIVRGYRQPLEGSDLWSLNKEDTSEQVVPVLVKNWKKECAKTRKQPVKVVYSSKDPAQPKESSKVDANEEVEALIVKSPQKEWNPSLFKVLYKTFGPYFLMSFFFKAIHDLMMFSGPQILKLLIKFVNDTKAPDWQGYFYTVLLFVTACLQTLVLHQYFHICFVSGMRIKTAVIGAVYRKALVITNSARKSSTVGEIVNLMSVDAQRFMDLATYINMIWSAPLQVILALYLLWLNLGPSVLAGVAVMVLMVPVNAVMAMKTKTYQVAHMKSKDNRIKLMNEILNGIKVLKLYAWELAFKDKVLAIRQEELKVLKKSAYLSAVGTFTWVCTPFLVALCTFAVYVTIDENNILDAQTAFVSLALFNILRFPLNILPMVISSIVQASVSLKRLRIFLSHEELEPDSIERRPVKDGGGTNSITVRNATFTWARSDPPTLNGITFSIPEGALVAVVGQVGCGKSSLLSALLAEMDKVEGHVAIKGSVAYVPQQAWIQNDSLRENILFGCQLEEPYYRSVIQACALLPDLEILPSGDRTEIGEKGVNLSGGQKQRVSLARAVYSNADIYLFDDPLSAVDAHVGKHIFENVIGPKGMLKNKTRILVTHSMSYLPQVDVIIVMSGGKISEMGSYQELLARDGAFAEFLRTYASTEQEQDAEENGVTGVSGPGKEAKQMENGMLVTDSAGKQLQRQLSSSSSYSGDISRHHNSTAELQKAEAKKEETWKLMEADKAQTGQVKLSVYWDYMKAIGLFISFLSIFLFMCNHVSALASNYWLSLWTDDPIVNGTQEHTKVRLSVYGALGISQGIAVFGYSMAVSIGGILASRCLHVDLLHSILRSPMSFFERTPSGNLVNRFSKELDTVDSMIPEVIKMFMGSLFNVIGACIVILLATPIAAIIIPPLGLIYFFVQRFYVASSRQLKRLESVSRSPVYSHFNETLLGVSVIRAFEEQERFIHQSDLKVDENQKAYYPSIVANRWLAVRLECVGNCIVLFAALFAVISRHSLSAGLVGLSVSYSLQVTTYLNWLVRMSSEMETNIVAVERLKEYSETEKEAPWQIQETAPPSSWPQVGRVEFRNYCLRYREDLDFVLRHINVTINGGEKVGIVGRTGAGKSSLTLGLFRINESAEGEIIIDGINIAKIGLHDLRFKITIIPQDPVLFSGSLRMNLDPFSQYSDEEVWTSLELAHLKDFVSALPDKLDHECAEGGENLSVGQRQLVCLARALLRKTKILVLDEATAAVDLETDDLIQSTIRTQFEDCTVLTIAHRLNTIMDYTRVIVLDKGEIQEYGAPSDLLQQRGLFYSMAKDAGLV

Compound	Activity [1]	Activity [2]
ANTIMONY (III) ION	substrate [+]	
COc1ccc(Cl)cc1C(=O)NCCc1ccc(S(=O)(=O)NC(=O)NC2CCCCC2)cc1 [GLYBURIDE]		inhibitor [+]
